Test results taken from patent US12350250B2, “Aggrelytes for treating ocular conditions” (The Regents of the University of Colorado, a Body Corporate, priority 2022, dated 2025).

Key:
human recombinant αAC = molecular target: T1, human recombinant αAC (Homo sapiens, UniProt P02489); assay: AGE formation (CML, CEL) in glycated recombinant αAC; assay type: biochemical; conditions: αAC 3 mg/mL pretreated with 10 mM aggrelyte-2 for 24 h, glycating mixture 5 days
T1 sequence (P02489 1-173): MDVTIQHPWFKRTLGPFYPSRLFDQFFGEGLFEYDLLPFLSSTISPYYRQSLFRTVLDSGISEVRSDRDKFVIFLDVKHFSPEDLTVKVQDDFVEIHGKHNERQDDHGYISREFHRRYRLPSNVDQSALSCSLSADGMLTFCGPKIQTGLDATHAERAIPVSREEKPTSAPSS
Protocol: (§1) To investigate the effects of Aggrelyte-2 on advanced glycation end product (AGE) formation, human recombinant αAC (3 mg/mL) or γD-crystallin (γDC, 2 mg/mL) in PBS was treated with or without aggrelyte-2 (10 mM for αAC and 1.25 mM for γDC) for 24 h, dialyzed against 100 mM sodium phosphate buffer pH 7.4 for 16 h and incubated with or without a glycating mixture (2 mM ascorbate, 25 mM D-glucose and 250 μM methylglyoxal) in 100 mM sodium phosphate buffer pH 7.4 for 5 days (after adding 0.002% sodium azide) at 37° C. The incubated proteins were dialyzed against PBS for 16 h, treated with 100 mM sodium borohydride for 1 h at room temperature, and acid hydrolyzed. Two AGEs, N^−-carboxymethyllysine (CML) and N^□-carboxyethyllysine (CEL), were measured by LC-MS/MS as described above. Each sample was separately processed 3-4 times.

γD-crystallin (γDC) = molecular target: T2, γD-crystallin (γDC) (Homo sapiens, UniProt P07320); assay: AGE formation (CML, CEL) in glycated recombinant γD-crystallin; assay type: biochemical; conditions: γDC 2 mg/mL pretreated with 1.25 mM aggrelyte-2 for 24 h, glycating mixture 5 days
T2 sequence (P07320 1-174): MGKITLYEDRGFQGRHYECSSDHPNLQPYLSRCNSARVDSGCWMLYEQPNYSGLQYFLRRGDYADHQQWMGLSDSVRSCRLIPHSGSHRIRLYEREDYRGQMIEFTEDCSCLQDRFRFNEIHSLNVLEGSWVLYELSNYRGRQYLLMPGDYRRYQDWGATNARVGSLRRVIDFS
Protocol: as §1

αA-crystallin (αAC) = assay: Crystallin levels in solubilized human lens proteins (Western blot), αAC; assay type: biochemical; conditions: 500 μM, solubilized proteins of three human lenses
Protocol: The contents of crystalline proteins [αA-crystallin (αAC), αB-crystallin (αBC), β-crystallin (βC), and γ-crystallin (γC)] in the solubilized proteins of three human lenses treated with either Aggrelyte-2 or Aggrelyte-2C (500 μM) from Example 4 were determined by Western blot analysis as described for Example 5. Membranes were incubated with antibodies against αAC (1:14,000 dilution; Enzo Life Sciences, Catalog #ADI-SPA-221D), αBC (1:700,000 dilution; University of Iowa), βC (1:14,000 dilution; Santa Cruz Biotechnology, Catalog #sc-22745), and γC (1:7,000 dilution; Santa Cruz Biotechnology, Catalog #sc-22746). The secondary antibodies were HRP-conjugated anti-mouse IgG for αBC and HRP-conjugated […] (Cell Signaling Technology, Catalog #7074S) for αAC, βC, and γC. According to the supplier, the […] detects mostly βB1-crystallin and, to a lesser extent, βA1/3, βA2, βA4, βB2, and βB3-crystallin. The γC antibody reacts with γA, γB, γC, γD, γE, and γF-crystallin.

mouse lenses [1] = assay: AcK-bearing proteins in WS fraction of treated mouse lenses (Western blot); conditions: 1 mM, 24 hours, vs untreated controls (p<0.01) and Aggrelyte-2C (p<0.001)
Protocol: Mouse and human lenses were treated with aggrelytes as described in Example 10. Water-soluble proteins from mouse and human lenses were obtained as described in Example 13. Effects of aggrelyte treatment on AcK-bearing proteins in the WS fractions were evaluated by Western blot analysis as described in Example 5. For Western blotting, 10-20 μg of protein from each lens sample was used and each sample was separately processed three times and analyzed.

human lenses = assay: Stiffness of ex vivo human lenses (Example 22); conditions: 250 μM, 48 hours, ex vivo human lenses (47-67 years)
Protocol: To test the effects of Aggrelyte-2 and Aggrelyte-2A on human lenses (age: 47-67 years), lenses were incubated in media containing freshly dissolved aggrelyte (250 μM) for 48 hours, with aggrelyte replacement after 24 hours. One lens from each donor pair was treated with aggrelyte, while the other was used as the control. After incubation, lens stiffness was measured, as described above in Example 20.

mouse lenses [2] = assay: Stiffness of ex vivo mouse lenses (Example 18); set-up: species or system mouse (C57BL/6J); conditions: 1 mM, 24 hours, ex vivo mouse lenses (3-6 months old); not significant
Protocol: In this example, the lenses were dissected from the eyes of mice (C57BL/6J, 3-6 months old, Jackson Laboratories, Stock No. 000664) by a posterior approach and incubated without (“Control”) or with Aggrelyte-2 or Aggrelyte-2A (1 mM) for 24 hours in serum-free and phenol-red-free MEM (297 mOsm) at 37° C. Lens stiffness was measured as in Example 10, except that the load was applied at 50 mg increments.

levels of both CML and CEL (AGEs) after glycation (human recombinant αAC): significantly reduced (p<0.0001)
levels of both CML and CEL (AGEs) after glycation (γD-crystallin (γDC)): significantly reduced (p<0.0001)
SMILES: COC(=O)[C@H](CSC(C)=O)NC(C)=O [Aggrelyte-2, N,S-diacetyl-L-cysteine methyl ester]
levels of αAC, fold higher than in the Aggrelyte-2C-treated samples (αA-crystallin (αAC)): 1.3 fold
AcK modifications in WS proteins (Western blot) (mouse lenses [1]): significantly higher AcK modifications
effect on lens stiffness (human lenses): no effect on stiffness
reduction of lens stiffness (mouse lenses [2]): approximately 20%
